Assay results published in PMC10974242, “Killing of Plasmodium Sporozoites by Basic Amphipathic α-Helical Fusion Peptides” (Microorganisms, 2024).
Values joined by “and” are separate entries in the source; they are usually repeats but may differ in a detail not shown here. Identical values can stand only once. No end group written: not given here. *: point of attachment. FITC = O=C1OC2(c3ccc(O)cc3Oc3cc(O)ccc32)c2ccc(NC(=S)*)cc21

Assays:
[1] = system: P. gallinaceum sporozoites; settings: 250 µM; cited from earlier work
Protocol: Many natural antimicrobial peptides (AMPs), such as magainin, cecropin, and defensins, can kill oocysts from different plasmodial species when injected or over-expressed in the insect hemolymph. However, avian-infecting P. gallinaceum sporozoites are resistant to incubation with 250 µM of the AMPs metalnikowin, thanatin, drosocin, and metchnikowin. […] Yet, despite rendering mosquitoes susceptible to Gram-positive bacterial challenge, the k ...

[2] = system: P. berghei (Pb) salivary gland sporozoites; type: cell-based, P. berghei ANKA; settings: for killing of GFP-expressing Pb sporozoites (in words): 3-9 independent experiments
Protocol: (§1) To assess the cytotoxic effect of the different peptides on sporozoites, we performed an in vitro assay as previously described. Briefly, sporozoites were incubated at 37 °C for 45 min with different peptides in the presence of 10% fetal calf serum (FCS). Samples were next, incubated for 10 min with 5 µg/mL propidium iodide (PI, Invitrogen, WA, USA) on ice and either imaged in an inverted Axio Observer Z.1 microscope (Zeiss, Oberkochen, Germany) and analyzed using Fiji or diluted 10 times with cold PBS before acquisition on a CytoFLEX S flow cytometer (Beckman Coulter, Brea, CA, USA). For the Pf cytotoxic assay, a final concentration of 0.5 µM cytochalasin D (Sigma-Aldrich) was used in some conditions. Viability was defined as the percentage of GFP+PI- sporozoites to the sum of GFP+PI-, GFP+PI+, and GFP-PI+ sporozoites. Data were analyzed using the CytExpert 2.0 software (Beckman Coulter).
(§2) To evaluate the killing of plasmodial sporozoites by membrane-active molecules, we tested the activity of cationic amphipathic α-helical peptides listed in Figure 1 on P. berghei (Pb), P. yoelii (Py), and P. falciparum (Pf) salivary gland sporozoites in vitro. Quantification of sporozoite death was measured by flow cytometry based on the uptake of propidium iodide (PI), a live cell impermeant nucleic acid fluorescent dye, and/or by the loss of parasite fluorescence following 45 min incubation at 37 °C in PBS 10% fetal calf serum (FCS).

[3] = system: P. falciparum (Pf) salivary gland sporozoites; assay: Sporozoite cytotoxicity assay (PI uptake), with or without cytochalasin D; type: cell-based; settings: 45 min, 37 °C; for killing of Pf sporozoites (in words): 20 µM peptide, PBS 10% FCS
Protocol: as §1, §2

Pb sporozoites = assay: Dynamic microscopy and gliding motility assay of sporozoites; type: cell-based, P. berghei ANKA
Protocol: To visualize the killing of the sporozoites by the peptide, Pb sporozoites expressing mCherry were incubated with 20 μM of RT39 and RT39-FITC. First, 5000 sporozoites were activated in 10% FCS/PBS on an 18-well slide (iBidi, Gräfelfing, Germany). After 5 min, the peptide was added with 1 μM of To-Pro 3 and the sporozoites were immediately recorded for 15–30 min using a spinning-disk confocal system (UltraView ERS, PerkinElmer, Shelton, CT, USA) controlled by Volocity (PerkinElmer), composed of 4 Diode Pumped Solid State Lasers, a Yokogawa Confocal Scanner Unit CSU22, a z-axis piezoelectric actuator, and a Hamamatsu Orca-Flash 4.0 camera mounted on a Axiovert 200 microscope (Zeiss). Time-lapses were analyzed using Fiji.
To assess gliding motility, 5000 sporozoites were resuspended in 10% FCS/PBS in a final volume of 10 µL. The resulting suspension was transferred to an 18-well slide (iBidi) and centrifuged at 400× g for 3 min at 4 °C. The slide was then allowed to equilibrate at 37 °C, 5% CO2 for 3 min in the incubation chamber (Incubation System S, Zeiss) of an inverted epifluorescence wide-field microscope (AxioObserver Z.1, Zeiss) equipped with a LED illumination system (Colibri2, Zeiss), a CCD camera (AxioCam MR, Zeiss), and controlled by the AxioVision software (version 4.8.2.0, Zeiss). After 3 min, a time-lapse movie at a rate of one image per second was recorded for 2 min to control for initial parasite motility. After the 2 min recording, 10 µL of PBS or 20 µM of RT39 were added on top, and the parasites were immediately imaged for 20 min. The average sporozoite velocity at different time points was determined using the MTrack2 plug-in from Fiji.
RT39 induced a fast killing of Pb sporozoites in comparison with anti-CSP antibody as measured by flow cytometry. While 20 µM of the cytotoxic peptide killed most parasites before 5 min of incubation, 10 µg/mL of cytotoxic antibody needed more than 20 min to eliminate the majority of sporozoites (Figure 3A). To better understand the way RT39 is acting on Pb sporozoites, we dynamically imaged the cytotoxic effect of the peptide on fluorescent sporozoites in the presence of To-Pro 3, a live-cell impermeant far-red fluorescent nucleic acid dye. Given its fast-killing kinetics, RT39 was added to a microscopy chamber containing PBS 10% FCS and sporozoites, which were immediately recorded for 20 min at 37 °C. In the presence of FCS, most sporozoites move in a circular way in a substrate-dependent manner. Sporozoite death was assessed by the incorporation of To-Pro 3 and/or by the loss of cytoplasmic fluorescence. Following the addition of RT39 to sporozoites, a lag phase of around 5 min was observed, probably corresponding to the diffusion and peptide binding to sporozoites, after which parasites started to die in quick succession (Figure 3B).

[4] = system: P. berghei (Pb) salivary gland sporozoites; type: cell-based, P. berghei ANKA; settings: 20 µM peptide, 37 °C, flow cytometry, n = 2
[5] = system: CD4+ T cells susceptible to HIV infection; settings: cited from earlier work
Source text: (§3) We next tested the killing activity of a series of cationic amphipathic peptides consisting of penetratin (Figure 1, RK16), a cell-penetrating peptide (CPP) derived from the Drosophila melanogaster homeotic protein antennapedia a-helix 3 [25], fused with peptides derived from the a-helix 18 of the antiapoptosis clone 11 (AAC11) also known as Apoptosis Inhibitor 5 protein [26] (Figure 1, RL37, RT39, and RT53).

cancer cells = settings: cited from earlier work
Source text: as §3

human cells = settings: cited from earlier work
Source text: Conversely, RT53, which combines the sequences of two basic amphipathic helical peptides (Figure 1B), one capable of translocating into cells and the other containing a heptad leucine repeat domain, which acts as a protein–protein interaction domain [32, 39], was able to kill Pb and Pf sporozoites.

[6] = system: Escherichia coli DH5α (Ec); assay: E. coli viability, CFU quantification after incubation with cecropin B; type: cell-based; settings: 2 µM cecropin B, 10 min, 37 °C, 10% FCS/PBS, CFU normalised to control; 3-4 independent experiments
Protocol: Escherichia coli DH5α (Ec) were grown at 37 °C under agitation in LB medium at an OD620 of approximately 0.35 (corresponding to 10^8 CFU/mL). After centrifugation and washing with PBS, the equivalent of 10^7 colony-forming units (CFUs)/mL were incubated at 37 °C for 10 min with or without Cecropin B (Sigma-Aldrich) in 10%FCS/PBS at concentrations ranging from 2 to 100 μM. The suspensions of bacteria were diluted 1000× in PBS and 50 µL were spread on LB-agar plates for CFU quantification. Viability was assessed by normalizing the number of CFU to the control group. A sample of E. coli heated at 70 °C for 10 min was used as a death control.
Cecropin B is a prototypical antimicrobial peptide (AMP, Figure 1) discovered in the hemolymph of the Cecropia moth. […] Since our sporozoite killing assay contains 10% FCS, which can inhibit the antimicrobial activity of several AMPs, we first tested the antimicrobial activity of cecropin B in the presence of 10% FCS.

[7] = system: P. yoelii (Py) salivary gland sporozoites; assay: Sporozoite cytotoxicity assay (PI uptake / loss of fluorescence); type: cell-based, P. yoelii 17XNL; settings: 100 µM, 45 min incubation, 10% FCS/PBS; 3-4 independent experiments
Protocol: as §1, with “Viability was defined as the percentage of GFP+PI- sporozoites to the sum of GFP+PI-, GFP+PI+, and GFP-PI+ sporozoites.” left out
as §2

P. knowlesi oocysts = settings: in vivo, at concentrations that start to be toxic to mosquitoes; cited from earlier work
P. cynomolgi oocysts = settings: in vivo, at concentrations that start to be toxic to mosquitoes; cited from earlier work
Pf oocysts = settings: in vivo, at concentrations that start to be toxic to mosquitoes; cited from earlier work
[8] = 20 µM peptide, 45 min, 37 °C, 10% FCS/PBS, flow cytometry

Substance: metchnikowin
- susceptibility of P. gallinaceum sporozoites to incubation [1]: resistant

Substance: RQIKIWFQNRRMKWKKLQYFAAGLQVYIRQLRLALQGGKT [RT39M]
- Pb sporozoite death compared with RT39 ([2]; 2, 10, 40, 80 μM, 45 min, 37 °C, flow cytometry, n = 3): strongly decreased

Substance: RQIKIWFQNRRMKWKKLQYFARGLQVYIRQLRLALQGGKT [RT39, penetratin fused with shorter AAC11 a-helix 18 peptide]
- lethality to Pb sporozoites compared with cytotoxic anti-CSP antibody ([2]; 20 µM peptide vs 10 µg/mL anti-PbCSP (3D11), 45 min, 37 °C): as lethal as or more than
- lethality to Pf sporozoites compared with cytotoxic anti-CSP antibody ([3]; 20 µM peptide vs cytotoxic anti-CSP antibody): as lethal as or more than
- killing of Pf sporozoites (in words) [3]: stronger killing activity than RT53
- time of sudden stop in motility with To-Pro 3 entry and mCherry leakage (Pb sporozoites; 20 µM RT39, exemplified dying sporozoite): ~ 450 s
- effect on sporozoite motility (speed) before permeabilization (Pb sporozoites; 20 µM RT39, two-minute analysis of speed at end of lag phase or beginning of death plateau, 2-3 independent experiments): did not significantly impact sporozoite motility
- lag phase before parasites start to die (Pb sporozoites; 20 µM RT39 added to sporozoites in PBS 10% FCS, 37 °C, recorded 20 min, microscopy): around 5 min
- incubation time at which most Pb sporozoites are killed [4]: < 5 min and 5 min
- cell death of CD4+ T cells susceptible to HIV infection [5]: elicit the cell death
- cell death of cancer cells (cancer cells): elicit the cell death

Substance: {FITC}-RQIKIWFQNRRMKWKKLQYFARGLQVYIRQLRLALQGGKT [RT39-FITC, FITC-labeled RT39]
- Ratio MFI SPZ/Bk of live parasites (Pb sporozoites; 20 µM RT39-FITC in solution, spinning-disk microscopy, 1 μM To-Pro 3, 10% FCS/PBS): ~ 1
- site of membrane permeabilization on the sporozoite body (Pb sporozoites; 20 μM RT39-FITC, 1 μM To-Pro 3, n = 34 sporozoites from 2 independent experiments): frequently occurred at the posterior part of the sporozoite body

Substance: RQIKIWFQNRRMKWKK [RK16, cell-penetrating peptide derived from the Drosophila melanogaster homeotic protein antennapedia a-helix 3, reference compound]
- killing of GFP-expressing Pb sporozoites (in words) [2, 8]: did not significantly kill

Substance: drosocin
- susceptibility of P. gallinaceum sporozoites to incubation [1]: resistant

Substance: thanatin
- susceptibility of P. gallinaceum sporozoites to incubation [1]: resistant

Substance: RQIKIWFQNRRMKWKKKDFKIRLQYFARGLQVYIRQL [RL37, penetratin fused with a peptide derived from the a-helix 18 of AAC11]
- killing of GFP-expressing Pb sporozoites (in words) [2, 8]: did not significantly kill

Substance: RQIKIWFQNRRMKWKKAKLNAEKLKDFKIRLQYFARGLQVYIRQLRLALQGKT [RT53]
- Pb sporozoites killed [2, 8]: around 50%
- killing of GFP-expressing Pb sporozoites (in words) [2, 8]: able to kill
- killing of Pf sporozoites (in words) [3]: able to kill
- cell death of CD4+ T cells susceptible to HIV infection [5]: elicit the cell death
- cell death of cancer cells (cancer cells): elicit the cell death
- incubation time at which membrane permeabilization plateaus (human cells): 60 min
- membrane permeabilization activity compared with RT39 (human cells): equivalent or higher

Substance: cecropin B: cationic amphipathic antimicrobial insect peptide from Hyalophora cecropia, purchased from Sigma-Aldrich (KWKVFKKIEKMGRNIRNGIVKAGPAIAVLGEAKAL; ends and bridges not checked; UniProt P01508 27-61, looked up)
- killing of E. coli [6]: efficiently kill
- killing of Pb sporozoites ([2]; 100 µM, 45 min incubation, 10% FCS/PBS, 3-4 independent experiments): did not significantly kill
- killing of Py sporozoites [7]: did not significantly kill
- development of P. knowlesi oocysts (P. knowlesi oocysts): inhibit the development
- development of P. cynomolgi oocysts (P. cynomolgi oocysts): inhibit the development
- development of Pf oocysts (Pf oocysts): inhibit the development
